Values quoted from earlier work in patent publication US8409637B2, “Compositions and methods for treating and preventing migrainous headaches and associated symptoms” (Puramed Bioscience Inc., priority 2007, dated 2013).

Tests used:
COX-2 = target: T1, COX-2 (Homo sapiens, UniProt P35354)
T1 sequence (P35354 18-604): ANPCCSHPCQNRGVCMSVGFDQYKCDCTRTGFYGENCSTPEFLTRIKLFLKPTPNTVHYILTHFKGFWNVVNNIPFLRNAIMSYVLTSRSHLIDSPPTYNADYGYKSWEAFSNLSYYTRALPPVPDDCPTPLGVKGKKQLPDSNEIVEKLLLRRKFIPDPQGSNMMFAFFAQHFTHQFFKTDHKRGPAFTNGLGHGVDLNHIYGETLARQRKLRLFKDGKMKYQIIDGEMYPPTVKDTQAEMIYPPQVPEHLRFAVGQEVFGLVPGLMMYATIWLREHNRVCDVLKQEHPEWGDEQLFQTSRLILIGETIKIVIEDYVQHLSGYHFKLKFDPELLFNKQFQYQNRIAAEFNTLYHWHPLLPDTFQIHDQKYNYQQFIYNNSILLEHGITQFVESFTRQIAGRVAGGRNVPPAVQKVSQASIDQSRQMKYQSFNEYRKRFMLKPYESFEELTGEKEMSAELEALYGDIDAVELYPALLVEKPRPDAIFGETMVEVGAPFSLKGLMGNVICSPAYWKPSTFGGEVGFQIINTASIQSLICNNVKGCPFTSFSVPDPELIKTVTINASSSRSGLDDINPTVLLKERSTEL

C/C=C(/C=O)[C@@H](CC=O)CC(=O)OCCc1ccc(O)cc1 [oleocanthal]
Inhibition of COX-1 enzyme activity (COX-1): inhibits | Inhibition of COX-2 enzyme activity (COX-2): inhibits
